Experimental data: paper PMC10275055, “Preventing recurrence in Sonic Hedgehog Subgroup Medulloblastoma using the OLIG2 inhibitor CT-179” (Research Square, 2023)

Key:
[1] = test system: Daoy MB cell line; test: Cell viability, 7 days treatment, Daoy; format: cell-based; conditions: Homo sapiens, 168 h
Method: (§1) Cell proliferation was determined by a CellTiter 96® Non-Radioactive Cell Proliferation Assay (Promega) kit. Absorbance at 490 nm was measured on a Biotek PowerWave (Biotek, USA) plate scanner to obtain raw data. Average absorbance from triplicate wells were plotted against concentration using GraphPad Prism software v.7.0 (GraphPad software). At the indicated time points, cells were stained using FITC-conjugated Annexin V and Annexin V binding buffer (BD Pharmingen™) according to the manufacturer’s instructions. Annexin V or propidium iodide (PI)-positive cells were analyzed using a Fortessa 5 Flow Cytometer (Becton Dickinson) and data was analyzed using FlowJo® software (Tree Star).

[2] = test system: UW228 MB cell line; test: Cell viability, 7 days treatment, UW228; format: cell-based; conditions: Homo sapiens, 168 h; UW228, 7 days
Method: as §1

[3] = biological target: T1, OLIG2 dimerization (Homo sapiens, UniProt Q13516); test: FCCS of OLIG2 dimerization in live HEK293 cells co-transfected with OLIG2-eGFP and OLIG2-Tomato; format: cell-based
T1 construct: expressed in transfected cells; host or cells: HEK293
T1 sequence (Q13516 1-323): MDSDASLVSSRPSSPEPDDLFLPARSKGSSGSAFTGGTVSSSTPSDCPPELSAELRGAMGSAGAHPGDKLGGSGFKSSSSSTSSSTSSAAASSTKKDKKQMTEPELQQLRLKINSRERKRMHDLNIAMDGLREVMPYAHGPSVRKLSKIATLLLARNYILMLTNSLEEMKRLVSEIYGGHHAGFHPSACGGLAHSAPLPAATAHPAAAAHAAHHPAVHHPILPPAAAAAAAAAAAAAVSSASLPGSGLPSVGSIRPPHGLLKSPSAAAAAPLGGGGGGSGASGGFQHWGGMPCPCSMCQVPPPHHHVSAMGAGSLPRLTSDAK
Method: HEK293 cells were maintained in a humidified atmosphere containing 5 % CO2 at 37 °C in Dulbecco’s Modified Eagle Medium supplemented with 10 % fetal bovine serum (FBS) and antibiotics (100 U/mL penicillin and 100 μg/mL streptomycin). One day before the transfection, HEK293 cells were split into Lab-Tek 8-well chambered Coverglass (Thermo Fisher Scientific). HEK293 cells on and 8-well chamber were transfected with plasmid DNA (OLIG2-eGFP and OLIG2-Tomato; or with eGFP and Tomato as negative control) using Lipofectamine 2000 (Thermo Fisher Scientific). After the transfection, HEK293 cells were cultured for 24 h at 37 °C. […]
CLSM imaging and FCCS measurements were performed using an LSM880 microscope system (Carl Zeiss, Germany) equipped with an Ar-ion laser with three lines: 458 nm, 488 nm and 514 nm, 543 nm He-Ne laser, and a water immersion objective lens (C-Apochromat, 40×, 1.2 N.A., Corr, Carl Zeiss), and a gallium arsenide phosphide (GaAsP) spectral array detector and photomultiplier tube (PMT) spectral array detector. eGFP and Tomato were excited using 488 nm laser and 543 nm laser, respectively. […] The emitted fluorescence was split by a diffraction grating and detected using a GaAsP detector (wavelength range 496–534 nm for eGFP) and a PMT detector (wavelength range 580–758 nm for Tomato). […]
Data acquired by FCCS was analyzed using the ZEN software (Carl Zeiss). […]

[4] = test system: Daoy cells; test: Apoptosis and cell cycle analysis in Daoy cells; format: cell-based, human; conditions: 1 μM
Method: as §1
Cell cycle analysis was performed as descried previously. Cells were fixed with 70% ice-cold ethanol and subsequently stained with PI and analyzed using a Fortessa 5 Flow Cytometer (Becton Dickinson) and data was analyzed using FlowJo® software (Tree Star).

Compound: Cc1cc(NCCCN(C)C)nc(NC(=O)Nc2ccc(Cl)c(Cl)c2)n1 [CT-179]
- IC50 [1]: 144 nM
- IC50 [2]: 285 nM
- relative cross-correlation amplitude (RCA) ([3]; 1 μM for one hour): significantly decreased
- allosteric factor, nallo ([3]; best fit of RCA dose-response curve): −0.66
- apoptosis (cleaved CASPASE-3, Annexin V) [4]: increased apoptosis
- cell cycle effect ([4]; 24 hours, single therapy): G2/M phase arrest
